# Values joined by “and” are separate entries in the source; they are usually repeats but may differ in a detail not shown here. Identical values can stand only once.
# How the values were obtained:
# APP/PS1 mice [1] = experiment: flow cytometry of brain immune cells (Fig 5c-g); type: in vivo, mouse; conditions: APP/PS1 + N-AS, individual values
# Method: Transgenic mouse lines over-expressing the hAPP695swe (APP) and presenilin-1M146V (PS1) mutations were originated from GlaxoSmithKline (Harlow, UK)[32] and maintained as described previously. We purchased 5×FAD mice from Jackson Labs (Stock number. 34840-JAX). Because APP/PS1 and 5xFAD mice show sex differences in disease progression, we used only male mice. To examine possible therapeutic effect of N-AS and aspirin in APP/PS1 mice, the N-AS (30 mg kg^−1, Sigma-Aldrich, 01912) was injected daily s.c. for 8 weeks to 7-months-old APP/PS1 mice until the age of 9 months, and aspirin (2 mg kg^−1, Sigma-Aldrich, A5376)[33] was administrated orally to 7-months-old APP/PS1 mice for 8 weeks. Also, to confirm possible therapeutic efficacy of N-AS in 5×FAD, the N-AS (30 mg kg^−1, Sigma-Aldrich, 01912) was injected daily s.c. for 4 weeks to 3-months-old 5×FAD mice until the age of 4 months. Block randomization method was used to allocate the animals to experimental groups. To eliminate the bias, we were blinded in experimental progress such as data collection and data analysis. Mice were housed at temperature of 22 °C and a 12 h day/12 h night cycle with free access to tap water and food pellets. All protocols were approved by the Kyungpook National University Institutional Animal Care and Use Committee.
# Brain microglia polarity and immune cells in brain and blood were analyzed by flow cytometry. Cells from WT, APP/PS1, and APP/PS1 treated with N-AS mice brain were prepared as previously described with minor modifications. Brains of WT, APP/PS1, and APP/PS1 treated with N-AS mice were dissected and immediately transferred in ice-cold HBSS (Gibco). After gentle mincing, the brain was digested in a HBSS solution containing collagenase P (0.2 mg ml^−1, Roche), dispase II (0.8 mg ml^−1, Roche), DNase I (0.01 mg ml^−1, Roche), and collagenase A (0.3 mg ml^−1, Roche) at 37 °C for 1 h under gentle rocking. Digestion was stopped by adding FBS (Gibco) on ice. The supernatants were centrifuged at 250×g for 10 min at 4 °C. The pellet was resuspended in 25% BSA (Gibco)/PBS (Gibco) for myelin removal. Following a centrifugation step at 3000×g for 30 min at 4 °C, the myelin containing supernatant was discarded. The cell pellets were then resuspended in 1 ml of HBSS and filtered through a 40 μm mesh, followed by a washing step in HBSS. The cell pellets were resuspended in 1 ml of red blood cell lysis buffer (BD Biosciences) and incubated at RT for 10 min for lysis of erythrocytes. Subsequently, 2 ml of MACs buffer (Miltenyl Biotec, 130-091-222) was added and centrifuged at 250×g for 10 min at 4 °C. Cells from WT, APP/PS1, and APP/PS1 treated with N-AS mice blood were prepared as previously described with minor modifications. Blood was collected in sodium-heparin tube (BD, 367871) by cardiac puncture. Red blood cells were lysed once at 4 °C for 10 min in 0.15 M NH4Cl ([…] Technologies), washed once with PBS (Gibco), and counted using cell counter (Logos biosystems). […]
# APP/PS1 mice [2] = experiment: N-AS level in microglia and neuron isolated from treated mice (LC-MS/MS, Fig 4b); type: in vivo, mouse; conditions: N-AS 30 mg kg^-1 daily s.c. 8 weeks, individual values
# Method: Reactions were quenched by adding equal volume of cold methanol. A 100 μl aliquot of the reaction mixture was mixed with 30 μl of distilled water containing 5 ng ml^−1 of furosemide (internal standard) for 1 min and vigorously mixed with […] of ethyl acetate for 20 min. After centrifugation at 16,000×g for 10 min, the mixtures were kept for 2 h for freezing aqueous phase. The upper ethyl acetate layer was transferred to a clean tube and evaporated to dryness under a gentle stream of nitrogen. Then, the dried extract was reconstituted in 100 µl of mobile phase and 10 µl aliquot of the solution was injected into an Agilent 6470 Triple Quad LC–MS/MS system (Agilent, Wilmington, DE) coupled with an Agilent 1260 HPLC system. […] Quantification was carried out using multiple reaction monitoring (MRM) at m/z 340.3→263.3 for N-AS and m/z 328.9→284.8 for furosemide (internal standard) in negative ionization mode and collision energy of 20 eV. […]
# Adult neurons and microglia were isolated from the mice brain as previously described. […] The purity of the fractionated neurons and microglia were acutely confirmed by neuronal (NeuN, mouse, 1:200, Millipore, MAB377) and microglial (Iba1, rabbit, 1:1000, Wako, 019-19941) markers and the isolated neurons and microglia were acutely analyzed for the acetylation assay and lipid mediators metabololipidomics. […]
compound,measurement,setting,value
"CCCCCCCCCCCCC/C=C/[C@@H](O)[C@H](CO)NC(C)=O [N-AS, N-((2S,3R,E)-1,3-Dihydroxyoctadec-4-en-2-yl)acetamide]",calculated percentage of B220+ B cell,APP/PS1 mice [1],2.8 and 2.66 and 2.73 and 2.695
same,calculated percentage of CD4+ T cell,APP/PS1 mice [1],2.24 and 2.43 and 2.335 and 2.3825
same,calculated percentage of CD45+CD11b+Ly6ChiLy6G- monocyte,APP/PS1 mice [1],0.84 and 1.06 and 0.92 and 0.95 and 0.99 and 0.935
same,calculated percentage of CD45hi CD11b+ Gr-1- F4/80+ CD206+ (anti-inflammatory macrophage),APP/PS1 mice [1],0.4 and 0.45 and 0.37 and 0.39 and 0.41 and 0.38
same,calculated percentage of CD45hi CD11b+ Gr-1- F4/80+ MHCIIhi (pro-inflammatory macrophage),APP/PS1 mice [1],0.46 and 0.45 and 0.59 and 0.4 and 0.52 and 0.495
same,calculated percentage of cd45+cd11b+gr1+ neutrophil,APP/PS1 mice [1],0.452 and 0.46 and 0.34 and 0.504 and 0.4 and 0.422
same,calculated percentage of cd45+ly6g+gr1+ neutrophil,APP/PS1 mice [1],0.99 and 1.19 and 0.83 and 0.97 and 1.01 and 0.9
same,N-AS quantification (Fig 4b),APP/PS1 mice [2]; Microglia of APP/PS1 mice,8.217 and 7.5949 and 7.58 and 7.906 and 7.587 and 7.743
same,N-AS quantification (Fig 4b),APP/PS1 mice [2]; Neuron of APP/PS1 mice,2.188 and 3.557 and 2.872 (3×) and 3.215

# Source: article PMC7217877, “N-AS-triggered SPMs are direct regulators of microglia in a model of Alzheimer’s disease” (Nature Communications, 2020)
